SMILES strings stand for the structures. Where two headings read alike, the source gives them in different places.

Series [1] relates to pear alternaria leaf spot fungus (Alternaria kikuchiana). Format: in vivo. Particulars: pear black spot; concentration of spray liquid 500 ppm; three days after the inoculation.
For series [2], the system named is pear (variety: Niju-seiki). The settings on record: concentration of spray liquid 500 ppm.
Series [3] relates to Phytophthora infestans. Format: in vivo.
Series [4] concerns paddy rice (variety: Asahi).
The test system of series [5] is tomato (variety: Sekai-ichi).
Series [6] has as its system hariot (variety: Taisho Kintoki).
Series [7] deals with rice brown spot fungus (Cochliobolus miyabeanus). Put plainly: Test Example 2: control effect on paddy rice brown spot (spray on potted seedlings). The settings on record: Table 3, spray liquid 500 ppm, inoculation one day after spraying, lesions per leaf 5 days after inoculation.
The test system of series [8] is haricot sclerotinia rot (Sclerotinia sclerotiorum). Put plainly: Test Example 5: control effect on haricot sclerotinia rot (spray, detached leaflets). The settings on record: Table 6, spray liquid 200 ppm, lesion diameter 3 days after inoculation.
Description: On the following day, the first trifoliate leaf was cut off and the each leaflet of trifoliate leaf were placed in a 15 cm petri dish kept under moist conditions by placing a wet filter paper thereon and were inoculated on the center portion of each leaflet with a fungus-containing agar segment obtained by perforating by means of a cork borer of 8 mm in diameter an edge of a colony of a haricot sclerotinia rot (Sclerotinia sclerotiorum) cultured previously at 20°C. for 2 days in PSA medium. Three days after inoculation, the lesion diameter formed was measured by means of slide calipers and the control value (%) was obtained according to the following equation.
For series [9], the system named is rice brown spot fungus. The experiment in a line: Test Example 10: seed treatment against brown spot of rice (seed disinfection ratio). Particulars: concentration 1000 ppm, seed immersion, 25 days after the seeding.
Series [10] relates to rice seeds. The experiment in a line: Test Example 9: degree of phytotoxicity on rice after seed treatment (injury rating). The settings on record: concentration 1000 ppm.
Series [11] has as its system rice seeds (variety: Asominori). Put plainly: Test Example 10: degree of phytotoxicity on rice after seed treatment (injury rating). The settings on record: concentration 1000 ppm.
Series [12] has as its system Gibberella fujikuroi. Put plainly: Test Example 9: seed treatment against "Bakanae" disease of rice (seed disinfection ratio). Particulars: concentration 1000 ppm, seed immersion at 15°C. for 24 hours, 32 days after the seeding.
In series [13] the test system is cucumber downy mildew fungus (Pseudoperonospora cubensis). Type of series: in vivo. Particulars: for Control value: Table 7, spray liquid 500 ppm, percent lesion area 5 days after inoculation.
Series [14] relates to cucumber (variety: Sagami Hanjiro).
Series [15] deals with Pellicularia sasakii. Format: in vivo. Particulars: Table 4, spray liquid 500 ppm, paddy rice sheath blight.
Series [16] has as its system paddy rice. Particulars: Table 4, spray liquid 500 ppm.
The mark [17] stands for this setting: Table 3, spray liquid 500 ppm, paddy rice.
Setting [18] is: Table 6, spray liquid 200 ppm, haricot.

Consider `O=C1C2CC=CCC2C(=O)N1SC(Cl)(Cl)Cl` (stereo not shown) [Captan, reference compound], for which the “Control value (%)” value in series [1] was found to be 90%. For the same compound, the Degree of phytotoxicity in series [2] turned out to be 0.

Take `CCCOC(=O)c1sc(C(=O)OCCC)c(OC(C)=O)c1OC(C)=O` [Compound No. 3, 3,4-Diacetoxy-2,5-di-n-propoxycarbonylthiopene]: the Control value is on record as 93% in [3] (in vivo), 100% in series [7] and 100% in series [8]. For the same compound, the Degree of phytotoxicity in series [4] (in vivo), in [5] (in vivo), in series [6] (in vivo), in [10] and in series [11] was 0 throughout. Moreover, the “Seed disinfection ratio (%)” value in [9] and in [12] was 100% in each case.

For `CCOC(=O)c1sc(C(=O)OCC)c(OC(=O)OC)c1OC(=O)OC` [Compound No. 22, 3,4-Dimethoxycarbonyloxy-2,5-dicarbethoxythiophene], the Control value in series [3] (Table 5, spray liquid 500 ppm, tomato late blight, inoculation 3 days after spraying, observed 3 days after inoculation) amounted to 100%; in series [13], 100%; in [7], 100%; in series [8] it was 95%. Besides, the Degree of phytotoxicity in series [4] (setting [17]) worked out at 0; in series [5] (Table 5, spray liquid 500 ppm, tomato), 0; in [6] (setting [18]), 0; in series [14] (Table 7, spray liquid 500 ppm), 0; in [10] it was 0; in series [11], 0. For the same compound, the “Seed disinfection ratio (%)” value in [9] is on record as 100%; in series [12], 97%.

`CCOC(=O)c1sc(C(=O)OCC)c(OC(=O)NC)c1OC(=O)NC` [Compound No. 50, 3,4-Bis(N-methylcarbamoyloxy)-2,5-dicarbethoxy-thiophene]: the Control value in series [13] and in [7] was 100% in each case. The Degree of phytotoxicity worked out at 0 in series [4] (setting [17]); 0 in series [14] (Table 7, spray liquid 500 ppm); 0 in series [10]; 0 in series [11]. Also, the “Seed disinfection ratio (%)” value in series [9] and in series [12] was 100% in each case.

As for `CCOCCOC(=O)c1sc(C(=O)OCCOCC)c(O)c1O` [Compound No. 159, 3,4-Dihydroxy-2,5-di-2'-ethoxyethoxycarbonyl-thiophene], the Control value in series [3] (in vivo) is recorded as 99%; in series [7], 96%. The Degree of phytotoxicity in [4] (in vivo) and in series [5] (in vivo) was 0 in each case.

`CCOCCOC(=O)c1sc(C(=O)OCCOCC)c(OC(=O)NC)c1OC(=O)NC` [Compound No. 161, 3,4-Di-methylcarbamoyloxy-2,5-di-2'-ethoxyethoxycarbonylthiophene] yielded a Degree of phytotoxicity in [4] (in vivo) of 0. Moreover, in series [7], the Control value was found to be 100%.

The compound `COCCOC(=O)c1sc(C(=O)OCCOC)c(OC(=O)COC)c1OC(=O)COC` [Compound No. 170, 3,4-Di-methoxymethylcarbonyloxy-2,5-di-2'-methoxyethoxycarbonylthiophene] showed a Control value in series [13] of 93%. The Degree of phytotoxicity in series [14] (Table 7, spray liquid 500 ppm) was 0.

For `COC(=O)Oc1c(C(=O)OCc2ccccc2)sc(C(=O)OCc2ccccc2)c1OC(=O)OC` [Compound No. 179, 3,4-Di-methoxycarbonyloxy-2,5-dibenzyloxycarbonylthiophene], the Control value in series [13] came to 100%. The Degree of phytotoxicity in [14] (Table 7, spray liquid 500 ppm) turned out to be 0.

As for `CCNC(=O)Oc1c(C#N)sc(C(=O)OC)c1OC(=O)NCC` [Compound No. 208, 3,4-Di(N-ethylcarbamoyloxy)-2-cyano-5-methoxycarbonylthiophene], in series [13], the Control value was 100%. Besides, in series [1], the “Control value (%)” value is reported as 78%. Moreover, the Degree of phytotoxicity worked out at 0 in [14] (Table 7, spray liquid 500 ppm); 0 in series [2]; 0 in [11]. The “Seed disinfection ratio (%)” value in [9] came out at 97%.

In the case of `CCOC(=O)c1sc(C#N)c(O)c1O` [Compound No. 210, 3,4-Dihydroxy-2-cyano-5-carbethoxythiophene], the “Control value (%)” value in [1] came to 100%. In addition, in series [2], the Degree of phytotoxicity is 0.

`CCOC(=O)c1sc(C#N)c(OC(C)=O)c1OC(C)=O` [Compound No. 212, 3,4-Di-acetoxy-2-cyano-5-carbethoxythiophene]: the “Control value (%)” value in [1] is given as 100%. This compound had a Degree of phytotoxicity in series [2] of 0.

In the case of `CCOC(=O)Oc1c(C#N)sc(C(=O)OCC)c1OC(=O)OCC` [Compound No. 216, 3,4-Di-(ethoxycarbonyloxy)-2-cyano-5-carbethoxythiophene], the Degree of phytotoxicity in series [6] (setting [18]) and in series [11] was 0 each time. The same compound displayed a Control value in series [8] of 75%. The “Seed disinfection ratio (%)” value in series [9] turned out to be 100%.

Compound `CCOC(=O)c1sc(C(=O)OCC)c(OC(=O)c2cccs2)c1OC(=O)c1cccs1` [Compound No. 229, 3,4-Di-(2'-thenoyloxy)-2,5-dicarbethoxythiophene] came in with a Control value in series [13] of 100%. In series [14] (Table 7, spray liquid 500 ppm), the Degree of phytotoxicity is given as 0.

Turning to `COC(=O)c1sc(C(=O)c2ccccc2)c(O)c1O` [Compound No. 246, 3,4-Dihydroxy-2-carbomethoxy-5-benzoylthiophene], in [6] (setting [18]), the Degree of phytotoxicity is given as 0. Besides, in [8], the Control value is on record as 100%.

Compound `CCOC(=O)c1sc(C(=O)c2ccccc2)c(O)c1O` [Compound No. 247, 3,4-Dihydroxy-2-carbethoxy-5-benzoylthiophene] had a Degree of phytotoxicity in series [6] (setting [18]) of 0. Further, the Control value in series [8] worked out at 100%.

`CCOC(=O)c1sc(C(=O)c2ccccc2)c(OC(C)=O)c1OC(C)=O` [Compound No. 249, 3,4-Diacetoxy-2-carbethoxy-5-benzoylthiophene] yielded a Degree of phytotoxicity in [6] (setting [18]) of 0. In addition, in series [8], the Control value was 100%.

Consider `CCOC(=O)c1sc(C(=O)c2ccccc2)c(OC(=O)OC)c1OC(=O)OC` [Compound No. 252, 3,4-Di(methoxycarbonyloxy)-2-carbethoxy-5-benzoylthiophene], for which the Degree of phytotoxicity in series [6] (setting [18]) is reported as 0. The compound further gave a Control value in series [8] of 90%.

As for `CCOC(=O)c1sc(C(=O)c2ccc(C)cc2)c(OC(=O)N(C)C)c1OC(=O)N(C)C` [Compound No. 287, 3,4-Di(N,N-dimethylcarbamoyloxy)-2-carbethoxy-5-(p-methylbenzoyl)-thiophene], the Degree of phytotoxicity in [6] (setting [18]) stood at 0. For the same compound, the Control value in series [8] amounted to 90%.

`CCOCCC(=O)Oc1c(C(=O)OCC)sc(C(=O)OCC)c1OC(=O)CCOCC` [Compound No. 295, 3,4-Di(2'-ethoxyethylcarbonyloxy)-2,5-dicarbethoxy-thiophene]: in [15], the Control value was 94%. In series [16], this compound came in with a Degree of phytotoxicity of 0.

In the case of `CN(C)C(=S)SSC(=S)N(C)C` [TMTD, reference compound], the “Seed disinfection ratio (%)” value in [9] turned out to be 51%. In series [11], this compound registered a Degree of phytotoxicity of 0.

On to `N#Cc1c(Cl)c(Cl)c(Cl)c(C#N)c1Cl` [TPN, reference compound], for which, in series [13] (concentration of spray liquid 500 ppm, five days after the inoculation), the “Control value (%)” value was found to be 100%. The Degree of phytotoxicity in series [14] (concentration of spray liquid 500 ppm) is 0.

The compound `COC(=O)NC(=S)Nc1ccccc1NC(=S)NC(=O)OC` [Thiophanate-methyl, reference compound] showed a Control value in series [8] of 70%.

With `OCCN1CN(CCO)CN(CCO)C1` [Triazine, reference compound], the Degree of phytotoxicity in [4] (setting [17]) was determined as 0. Also, the Control value in series [7] amounted to 90%.

`CNC(=O)Oc1c(C#N)sc(C(=O)OC)c1OC(=O)NC` [compound 207] yielded a Control value in series [13] of 100%. Besides, the “Control value (%)” value in [1] is given as 92%. The Degree of phytotoxicity in series [14] (Table 7, spray liquid 500 ppm) came to 0; in series [2], 0; in [11] it was 0. In series [9], the “Seed disinfection ratio (%)” value is given as 96%.

For `CCOC(=O)c1sc(C#N)c(O)c1O` [compound 211], in [13], the Control value is 100%. In series [14] (Table 7, spray liquid 500 ppm), this compound came in with a Degree of phytotoxicity of 0.

Consider `CCOC(=O)c1sc(C#N)c(OC(=O)NC)c1OC(=O)NC` [compound 213], for which, in series [13], the Control value is 100%. Besides, the “Control value (%)” value in [1] is on record as 92%. The Degree of phytotoxicity in series [14] (Table 7, spray liquid 500 ppm) was 0; in series [2], 0; in series [11], 0. Moreover, the “Seed disinfection ratio (%)” value in series [9] turned out to be 94%.

The record behind these values is EP0032748B1, “Thiophene derivatives” (UBE INDUSTRIES, LTD., priority 1980, dated 1981).
